# Results reported in patent publication US20150119395A1, “NOVEL TRIAZOLE COMPOUNDS THAT MODULATE HSP90 ACTIVITY” (SYNTA PHARMACEUTICALS CORP., priority 2012, published 2015).
# Test system: Her2
# Test: Her2 degradation in BT-474 cells, in-cell western (ICW), Method 2
# Format: cell-based, human
# Details: BT-474 cells, 24 hours, Her2 signal normalized to DRAQ5; read-out: Her2 IC50 range of compounds of the invention for inhibition of Hsp90
# Protocol: Human BT474 (HTB-20), SK-BR-3 (HTB-30) and MCF-7 breast carcinoma cells (HTB-22) from American Type Culture Collection, VA, USA were grown in Dulbecco's modified Eagle's medium with 4 mM L-glutamine and antibiotics (100 IU/ml penicillin and 100 μg/ml streptomycine; GibcoBRL). To obtain exponential cell growth, cells were trypsinized, counted and seeded at a cell density of 0.5×10^6 cells/ml regularly, every 3 days. All experiments were performed on day 1 after cell passage.
# BT-474 cells were plated in the interior 60 wells of a 96 well black clear bottom plate (20,000 cells/well) in DMEM medium, with DMEM media in the surrounding 36 wells, and incubated at 37° C. with 5% CO2 overnight. On the second day, concentration response curve source plates were produced (10 point, 3-fold dilution of compounds in DMSO) followed by a 1:30 dilution in an intermediate dilution plate containing DMEM. Compound was transferred from the intermediate plate to the cell plate at a dilution of 1:10. The cells were incubated at 37° C. with 5% CO2 for 24 hours.
# Cells were fixed in 4% phosphate buffered paraformaldehyde for 30 minutes at room temperature and then permeabilized by washing five times with 0.1% Triton X-100 in PBS for 5 minutes at room temperature on a shaker. Cells were blocked with Odyssey Blocking Buffer (LI-COR, #927-40000) on a shaker at room temperature for 1.5 hours followed by incubation with Her2 antibody (CST, #2165) diluted 1:400 in blocking buffer overnight on a shaker at 4° C. Cells were washed five times with 0.1% Tween-20 in PBS for 5 minutes at room temperature on a shaker and incubated with fluorescently labeled secondary antibody (LI-COR, #926-32211) diluted 1:1000 in blocking buffer, and DRAQ5 nuclear stain (Biostatus Limited, #DRAQ5) diluted 1:10,000, at room temperature on a shaker for 1 hour. Cells were washed 5 times with 0.1% Tween-20 in PBS for 5 minutes at room temperature on a shaker and imaged on a LI-COR Odyssey imaging station. The raw data was normalized to DRAQ5 and the Her2 EC50 were calculated using XLfit.
row,Compound,IC50 [nM]
1,"CC(C)c1cc(-c2nnc(-c3cc(C(C)C)c(O)cc3O)n2-c2ccc(N3CCN(C)CC3)cc2)c(O)cc1O [Compound 1, 6,6′-(4-(4-(4-methylpiperazin-1-yl)phenyl)-4H-1,2,4-triazole-3,5-diyl)bis(4-isopropylbenzene-1,3-diol)]",3500
2,"CC(C)c1cc(-c2nnc(-c3ccncc3)n2-c2ccc(N3CCN(C)CC3)cc2)c(O)cc1O [Compound 2, 4-isopropyl-6-(4-(4-(4-methylpiperazin-1-yl)phenyl)-5-(pyridin-4-yl)-4H-1,2,4-triazol-3-yl)benzene-1,3-diol]",2280
3,"CC(C)c1cc(-c2nnc(-c3ccccc3O)n2-c2ccc(N3CCN(C)CC3)cc2)c(O)cc1O [Compound 3, 4-(5-(2-hydroxyphenyl)-4-(4-(4-methylpiperazin-1-yl)phenyl)-4H-1,2,4-triazol-3-yl)-6-isopropylbenzene-1,3-diol]",5160
4,"CC(C)c1cc(-c2nnc(-c3cccc(O)c3)n2-c2ccc(N3CCN(C)CC3)cc2)c(O)cc1O [Compound 4, 4-(5-(3-hydroxyphenyl)-4-(4-(4-methylpiperazin-1-yl)phenyl)-4H-1,2,4-triazol-3-yl)-6-isopropylbenzene-1,3-diol]",543
5,"CC(C)c1cc(-c2nnc(-c3ccccn3)n2-c2ccc(N3CCN(C)CC3)cc2)c(O)cc1O [Compound 5, 4-isopropyl-6-(4-(4-(4-methylpiperazin-1-yl)phenyl)-5-(pyridin-2-yl)-4H-1,2,4-triazol-3-yl)benzene-1,3-diol]",543
6,"CC(C)c1cc(-c2nnc(-c3cnccn3)n2-c2ccc(N3CCN(C)CC3)cc2)c(O)cc1O [Compound 6, 4-isopropyl-6-(4-(4-(4-methylpiperazin-1-yl)phenyl)-5-(pyrazin-2-yl)-4H-1,2,4-triazol-3-yl)benzene-1,3-diol]",3400
7,"CC(C)c1cc(-c2nnc(-c3cccc(O)c3)n2-c2ccc(CN3CCN(C)CC3)cc2)c(O)cc1O [Compound 7, 4-(5-(3-hydroxyphenyl)-4-(4-((4-methylpiperazin-1-yl)methyl)phenyl)-4H-1,2,4-triazol-3-yl)-6-isopropylbenzene-1,3-diol]",123
8,"CC(C)c1cc(-c2nnc(-c3cccc(O)c3)n2-c2ccc(N3CCOCC3)cc2)c(O)cc1O [Compound 8, 4-(5-(3-hydroxyphenyl)-4-(4-morpholinophenyl)-4H-1,2,4-triazol-3-yl)-6-isopropylbenzene-1,3-diol]",143

# Same assay, conditions: Table 3; read-out: EC50 range for Her2 degradation
row,Compound,EC50 [nM]
1,"CC(C)c1cc(-c2nnc(-c3cccc(O)c3)n2-c2ccccc2)c(O)cc1O [Compound 9, 4-(5-(3-hydroxyphenyl)-4-phenyl-4H-1,2,4-triazol-3-yl)-6-isopropylbenzene-1,3-diol]",< 200
2,"CC(C)c1cc(-c2nnc(-c3cccc(O)c3)n2-c2ccc(CN3CCOCC3)cc2)c(O)cc1O [Compound 10, 4-(5-(3-hydroxyphenyl)-4-(4-(morpholinomethyl)phenyl)-4H-1,2,4-triazol-3-yl)-6-isopropylbenzene-1,3-diol]",60
3,"CC(C)c1cc(-c2nnc(-c3cccc(O)c3)n2-c2cccnc2)c(O)cc1O [Compound 11, 4-(5-(3-hydroxyphenyl)-4-(pyridin-3-yl)-4H-1,2,4-triazol-3-yl)-6-isopropylbenzene-1,3-diol]",300
4,"CC(C)c1cc(-c2nnc(-c3cccnc3)n2-c2cccnc2)c(O)cc1O [Compound 12, 4-(4,5-di(pyridin-3-yl)-4H-1,2,4-triazol-3-yl)-6-isopropylbenzene-1,3-diol]",1000
5,"CC(C)c1cc(-c2nnc(-c3cccnc3)n2-c2ccc(CN3CCOCC3)cc2)c(O)cc1O [Compound 13, 4-isopropyl-6-(4-(4-(morpholinomethyl)phenyl)-5-(pyridin-3-yl)-4H-1,2,4-triazol-3-yl)benzene-1,3-diol]",100
6,"CC(C)c1cc(-c2nnc(-c3cc4ccccc4[nH]3)n2-c2ccccc2)c(O)cc1O [Compound 14, 4-(5-(1H-indol-2-yl)-4-phenyl-4H-1,2,4-triazol-3-yl)-6-isopropylbenzene-1,3-diol]",25
